Experimental data taken from US10982293B2, “Methods for improving plant resistance to soybean cyst nematode and compositions thereof” (Monsanto Technology LLC, priority 2014, dated 2021).

What was measured:
Assay type in all cases: in vivo, Heterodera glycines
[1] = system: race 1 soybean cyst nematodes; assay: Field tests: yield of treated and untreated soybean lines in race 1 SCN fields; conditions: for yield, treated vs untreated: race 1 SCN
Procedure: Prior to planting, seeds were treated with chemistry according to standard industry protocols. Six different untreated and treated lines were planted in eight plots. The six lines were selected based on resistance reaction to race 1 and race 3 SCN. […] The levels of resistance were determined essentially as described by Schmitt, D. P. and Shannon, G., Crop Sci., 32:275-277 (1992), according to Table 4. Soil cores were collected at emergence near the root zone of the plant. Multiple soil samples were taken, combined, and crushed into small evenly-sized particles. A sample aliquot was combined with water allowed to sit, then stirred. The sample was then poured into a funnel and processed in a soil elutriator. The sample was counted, with a final number being given as eggs per 100 cc of soil. Based on the number of eggs per 100 cc of soil, the field was classified as low to high pressure, where about 0 to about 180 eggs per 100 cc of soil was considered to be low pressure, about 180 eggs to about 1100 eggs per 100 cc of soil was considered to be medium pressure, and greater than about 1100 eggs per 100 cc of soil was considered to be high pressure. Lines were planted in four medium and four high pressure fields containing race 1 soybean cyst nematodes. The medium pressure fields contained 536 eggs per 100 cc of soil while the high pressure fields contained 1645 eggs per 100 cc of soil. Yield was determined at harvest. The lines derived from Peking germplasm provided protection against race 1 SCN while the lines derived from PI88788 germplasm provided protection against race 3 SCN.

race 2 SCN = assay: Greenhouse study: SCN cysts on roots of soybean grown from treated seed, race 2 SCN challenge; conditions: seed treatment, 2000-3000 SCN eggs, cysts counted after 28-30 days, mean of 6-8 replications, FIG. 3
Procedure: Various soybean lines were treated with the compound 3-phenyl-5-(thiophen-2-yl)-1,2,4-oxadiazole following standard industry protocols. The structure of 3-phenyl-5-(thiophen-2-yl)-1,2,4-oxadiazole is:
(§1) Untreated seed or seed treated only with a colorant were used as standard controls. Single soybean seed were planted in 3″×3″ pots filled with field soil mixed with sand and steam sterilized. Ten days after germination seedlings were inoculated with 2000-3000 SCN eggs isolated from cultures maintained on the appropriate soybean germplasm to maintain designated race. After inoculation, soil temperatures were maintained at 28° C. with 16-hour day-length for 28-30 days. On the last day of the incubation period, individual plants were uprooted. Cysts from each plant were collected by blasting the roots with pressurized water and washing the soil while trapping the released cysts on sieves. The collected cysts from individual plants were transferred to a counting dish. The total number of cysts from individual plants was counted under a dissecting microscope. Data is reported as the number of cysts collected from an individual pot and represent the mean of 6-8 replications.
All plants were treated with ACCELERON® (Monsanto Company, St. Louis, Mo., USA) to reduce fungal disease.

SCN [2] = assay: Field trials (43): yield of treated PI88788-derived soybean lines under moderate to high nematode pressure; conditions: seed treatment 0.50 mg AI/seed with Fungicide + Insecticide (Base 2); adjusted to 13% moisture
Text: Eleven different untreated and treated lines were planted in a total of 43 separate field trials with a single variety per location. The eleven lines were selected based on their resistance reactions to race 3 SCN. The eleven lines were developed from PI88788 source germplasm and display either moderate resistance or resistance to race 3 SCN. 3-Phenyl-5-(thiophen-2-yl)-1,2,4-oxadiazole was combined with commercial fungicides and insecticides in a tank slurry mix with colorant, polymer, and water at the recommended rates and allowed to mix thoroughly. Using a Gustafson continuous batch seed coater the seed batch was loaded, the treatment slurry was injected and the mixture was allowed to tumble for 35-40 seconds before being ejected into a paper storage bag. […] Sub-samples (˜ 1 pint of soil) were taken from each composite sample and placed in a plastic bag, with appropriate handling to ensure viability of nematodes, and sent to a lab for nematode quantification. […] Quantitative in-season nematode sampling using root and soil samples was conducted eight weeks after planting for trials. […] Samples were sent to a lab for nematode quantification. […] The data were calculated to represent bushels per acre by taking the grain weight over the square footage of each plot and adjusting to 13% moisture.

SCN [3] = assay: Greenhouse trials: susceptible soybean line challenged with SCN with and without the compound (all plants with Acceleron); conditions: presence vs absence of the compound, all plants treated with ACCELERON
Procedure: as §1, with “3''×3''” for “3″×3″”, “replications. […] All plants were treated with […]® (Monsanto Company, St. Louis, Mo., USA) to reduce fungal disease.” for “replications.”

c1ccc(-c2noc(-c3cccs3)n2)cc1 [3-phenyl-5-(thiophen-2-yl)-1,2,4-oxadiazole]
yield, treated vs untreated ([1]; high pressure field, 1645 eggs per 100 cc soil, Peking-moderately resistant (Line 2) and PI88788-moderately resistant (Line 5), FIG. 6): unexpected statistically higher yield | yield, treated vs untreated ([1]; high pressure field, 1645 eggs per 100 cc soil, Peking-resistant (Line 3), PI88788-sensitive (Line 4), PI88788-resistant (Line 6)): no statistical difference | yield, treated vs untreated ([1]; high pressure field, 1645 eggs per 100 cc soil, Peking-sensitive line (Line 1)): statistically higher yield than untreated | yield advantage compared to untreated ([1]; high pressure field, average of the two moderately resistant lines): 5.8 bushel per acre | yield in field tests (legend of FIG. 6) ([1]; high race 1 SCN pressure, about 1645 SCN eggs/100 cc soil): increase in yield | yield in field tests (legend of FIG. 5) ([1]; low race 1 SCN pressure, about 536 SCN eggs/100 cc soil): increase in yield | yield, treated vs untreated ([1]; medium pressure field, 536 eggs per 100 cc soil, Peking or PI88788 sensitive, moderately resistant and resistant lines, FIG. 5): No statistical difference in yield | resistance to race 2 SCN (number of SCN cysts on soybean roots) (race 2 SCN): enhances resistance to race 2 SCN | Average Yield (SCN [2]): 55.7 BU/A | SCN cyst counts (SCN [3]): lower SCN cyst counts
